Data on 15 compounds can be found in PMC5599463, “PK/PD studies on non-selective PDE inhibitors in rats using cAMP as a marker of pharmacological response” (Naunyn-Schmiedeberg's Archives of Pharmacology, 2017).

Data set [1] relates to plasma cAMP concentrations. Also on record: method as in Cheng et al. [1997]. The note with it: ref Cheng et al. [1997], cited from earlier work; for cAMP levels in mice: 10 times higher dose than that of the PDE4 inhibitors (10 mg kg^−1 p.o.); for plasma cAMP concentrations in mice: 10 mg kg^−1 p.o. For orientation: cAMP levels reflect the balance of adenylyl cyclase and phosphodiesterase activity.

Data set [2] relates to plasma cAMP concentration. Also on record: method as in Tanahashi et al. [1999]. The note with it: ref Tanahashi et al. [1999]; cited from earlier work.
The target in data set [3] is T1, human recombinant PDE4B (hrPDE4B) (Homo sapiens, UniProt Q07343).
T1 construct: purchased SignalChem, Richmond, Canada
T1 sequence (Q07343 whole entry): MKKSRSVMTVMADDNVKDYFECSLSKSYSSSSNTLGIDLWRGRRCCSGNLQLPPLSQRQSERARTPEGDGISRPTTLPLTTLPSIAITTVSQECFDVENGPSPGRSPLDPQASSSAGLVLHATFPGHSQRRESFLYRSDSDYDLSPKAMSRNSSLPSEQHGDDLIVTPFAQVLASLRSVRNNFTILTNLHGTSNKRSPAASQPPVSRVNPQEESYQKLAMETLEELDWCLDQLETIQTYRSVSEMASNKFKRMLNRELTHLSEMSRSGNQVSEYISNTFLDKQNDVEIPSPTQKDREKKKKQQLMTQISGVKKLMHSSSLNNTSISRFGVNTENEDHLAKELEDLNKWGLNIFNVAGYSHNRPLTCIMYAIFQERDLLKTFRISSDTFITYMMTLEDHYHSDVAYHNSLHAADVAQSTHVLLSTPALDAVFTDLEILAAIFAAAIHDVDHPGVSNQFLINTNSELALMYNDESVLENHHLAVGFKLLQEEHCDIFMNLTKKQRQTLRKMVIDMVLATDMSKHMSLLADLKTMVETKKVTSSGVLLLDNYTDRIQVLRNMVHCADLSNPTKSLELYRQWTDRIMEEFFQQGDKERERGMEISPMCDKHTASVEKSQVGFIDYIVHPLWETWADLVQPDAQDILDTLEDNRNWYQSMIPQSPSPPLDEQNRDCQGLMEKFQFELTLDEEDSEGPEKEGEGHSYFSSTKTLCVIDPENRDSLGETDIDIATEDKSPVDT
The data set is described as follows: PDE-Glo Phosphodiesterase Assay, hrPDE4B inhibition. The format is biochemical. The note with it: non-linear regression, in vitro. As for the experimental part:
(§1) The tested compounds were dissolved in DMSO, and a serial dilution of the inhibitors was performed using 1× PDE-Glo reaction buffer. Then, 1 μL of diluted inhibitors and 2.5 μL of cAMP solution were added to each well. After 10 min of incubation in 30 °C, 2.5 μL of PDE-Glo™ Termination Buffer and 2.5 μL of PDE-Glo™ Detection Solution were added and the plate was incubated for 20 min at room temperature. Finally, 10 μL of Kinase-Glo® Reagent was pipetted to each well and after 10 min of incubation, the luminescence was measured using a microplate luminometer (POLARstar Omega, BMG LABTECH, Ortenberg, Germany). All data points are the average of two determinations.

Data set [4] addresses T2, human recombinant PDE7A (hrPDE7A) (Homo sapiens, UniProt Q13946).
T2 construct: purchased SignalChem, Richmond, Canada
As to the kind of experiment: PDE-Glo Phosphodiesterase Assay, hrPDE7A inhibition. The format is biochemical. The conditions noted are these: for IC50: hrPDE7A, non-linear regression, in vitro. As for the experimental part:
as §1, with “Briefly, 1,5 μl of 1× PDE-Glo reaction buffer containing 10 mU of purified hrPDE4B or hrPDE7A (SignalChem, Richmond, Canada) was pipetted into 384-well plate wells (Thermo Scientific, USA). The tested” for “The tested”

In a further data set the test system is cAMP plasma levels. The conditions noted are these: cited from earlier work.
Data set [5] deals with plasma cAMP concentrations. As to the kind of experiment: Plasma cAMP in rats with endotoxemia after i.p. theophylline (own unpublished data). The format is in vivo. The conditions noted are these: i.p. 50 mg kg^−1, 0.5 h after administration.
The nature of data set [6]: Pharmacokinetics after i.v. administration to endotoxemic rats (compartmental modelling). The format is in vivo, Male Wistar rats. On the procedure:
(§2) All compounds were directly dissolved in 0.9% sterile saline and used within 1 day of preparation. The animals were divided into five groups (n = 3–4). […] All injections (1 mL kg^−1) were given to the tail vein of the rat under isoflurane anaesthesia. […] Subsequently, samples were kept on ice and centrifuged for 10 min at 3000×g at 4 °C (EBA 12 R, Hettich, Germany). The individual plasma samples were harvested and stored at −80 °C until analysis.
Then, the samples were extracted with 3 mL of dichloromethane for 20 min on a shaker (VXR Vibrax, IKA, Germany). Subsequently, all tubes were centrifuged (2000×g, 15 min) and organic layers were transferred to new glass tubes and evaporated under gentle stream of nitrogen at 37 °C. Dry residues were dissolved in 100 μL of mobile phase and placed in the autosampler vials. The volume of injection was set to 50 μL. The HPLC system (LaChrom Elite, Merck-Hitachi, Darmstadt, Germany) consisted of an L-2130 pump, an L-2200 autosampler, an L-2450 diode array detector and an L-2350 column oven. EZChrome Elite v. 3.2 (Merck-Hitachi) software was used for data acquisition. The analysis was performed on a LiChrospher 100 RP-18 column (250 mm × 4 mm) with a particle size of 5 μm protected with a LiChroCART (4 mm × 4 mm) guard column (Merck, Germany). The mobile phase consisted of dioxan, acetonitrile and aqueous solution of acetic acid (pH = 3.0) mixed at the ratio of 6.5:6.5:87 (v/v/v), respectively, and pumped at a flow rate of 1.2 mL min^−1. Analytical wavelength was set to 275 nm and temperature of separation was 35 °C.
To this end, one- or two-compartment pharmacokinetic models with linear or Michaelis–Menten type saturable elimination from the central compartment were tested. Both dose levels in each case were simultaneously fitted to obtain a single set of parameters. The final pharmacokinetic models for PTX and (±)-LSF were selected on the basis of visual inspection of the fitting, examination of residuals, parameter precision, Akaike Information Criteria (AIC), Bayesian Information Criteria (BIC) and analysis of the correlation matrix. Pharmacokinetic analysis was performed using Phoenix WinNonlin v. 6.3 (Pharsight Corp, Certara, St. Louis, MO, USA).

In a further data set the test system is TNF-α plasma levels. The data set is described as follows: Plasma TNF-α levels in endotoxemic rats (ELISA). The format is in vivo, Male Wistar rats. The conditions noted are these: both doses (40 and 80 mg kg^−1 i.v.) with LPS, 90 min, p < 0.05. On the procedure: as §2
Plasma TNF-α levels were measured by rat TNF-α Quantikine ELISA kit (R&D Systems, Minneapolis, MN, USA) according to the manufacturer’s protocol. The limit of quantification was 12.5 pg mL^−1.
(§3) The peak cAMP and TNF-α plasma levels following administration of LPS alone or LPS simultaneously with both doses of each compound were compared using a one-way ANOVA and Tukey’s HSD post hoc test. The normality of data distribution was checked by Shapiro–Wilk test. The relationship between decimal logarithms of peak cAMP and TNF-α plasma concentrations was verified by least squares linear regression analysis. All statistical analyses were performed using Statistica v. 12 (StatSoft Inc., USA). The significance level p was set at 0.05.
On the technique in general: In an ELISA, binding on a coated surface is turned into a signal by an enzyme label.

In data set [7] the test system is cAMP levels in rat plasma. As to the kind of experiment: PK/PD (IDR model II) of plasma cAMP in LPS-challenged rats. The format is in vivo, Male Wistar rats. The note with it: for cAMP levels in rat plasma after administration: 40 or 80 mg kg^−1 i.v. with LPS; for IC50: Rattus norvegicus. As for the experimental part: as §2
The levels of cAMP in rat plasma were measured using the same HPLC system and a fluorescence detector (model FL-2485). The analysis was performed after incubation of plasma with 2-chloroacetaldehyde as a derivatization reagent in elevated temperature to form the fluorescing derivative—1,N^6-etheno-cAMP. To 100 μL of plasma (or plasma spiked with water standard solution of cAMP), 15 μL of 2 M 2-chloroacetaldehyde solution and 50 μL of 0.5 M acetate buffer (pH = 4.5) were added to a snap-cap tubes. Samples were then vortex-mixed (Reax top, Heidolph, Germany) for 20 s and incubated at 80 °C for 20 min. Thereafter, the reaction mixture was cooled on ice, the samples were centrifuged (3000×g, 10 min) and 100 μL of supernatants was placed in the autosampler vials. The volume of injection was 50 μL. The separation was performed at isocratic conditions at 35 °C using the mobile phase composed of 20 mM citric-phosphate buffer (pH = 3.2) and methanol mixed at the ratio of 91:9 (v/v) and pumped at a flow rate of 1.3 mL min^−1. The excitation and emission wavelengths were set to 280 and 420 nm, respectively. In these conditions, the retention time of 1,N^6-etheno-cAMP was 6 min.
Changes in plasma cAMP concentrations (CcAMP) over time following each compound administration may be described by the following equation:
1 dCcAMP/dt=kin−kout⋅It⋅CcAMP
3 It=1−Imax⋅Cp^γ/IC50^γ+Cp^γ
The second approach assumes that both compounds under investigation act with different potencies. Based on the results of the in vitro study, an additive interaction model was used (Eq. 4):
I max and γ in Eqs. (3) and (4) were fixed to 1 during fitting procedure.
as §3

For data set [8], the system named is IL-12-induced murine T helper 1 (Th1) differentiation. Also on record: method as in Bright et al. [1998]. The note with it: dose-dependent manner; ref Bright et al. [1998]; cited from earlier work.
Details of data set [9]: method as in Wyska et al. [2007]. The note with it: mice; ref Wyska et al. [2007]; cited from earlier work.
The mark [10] stands for this setting: Interaction indirect response model II, rats challenged with LPS, i.v., read-out: IC50 (plasma concentration producing 50% of maximum inhibition of cAMP kout), final estimate (CV%).
The mark [11] stands for this setting: interaction IDR model II, endotoxemic rats, read-out: IC50 calculated using PK/PD model after conversion to.

SMILES strings stand for the structures. Like-named read-outs stand apart in the source and are kept apart here.

T2 sequence (Q13946 whole entry): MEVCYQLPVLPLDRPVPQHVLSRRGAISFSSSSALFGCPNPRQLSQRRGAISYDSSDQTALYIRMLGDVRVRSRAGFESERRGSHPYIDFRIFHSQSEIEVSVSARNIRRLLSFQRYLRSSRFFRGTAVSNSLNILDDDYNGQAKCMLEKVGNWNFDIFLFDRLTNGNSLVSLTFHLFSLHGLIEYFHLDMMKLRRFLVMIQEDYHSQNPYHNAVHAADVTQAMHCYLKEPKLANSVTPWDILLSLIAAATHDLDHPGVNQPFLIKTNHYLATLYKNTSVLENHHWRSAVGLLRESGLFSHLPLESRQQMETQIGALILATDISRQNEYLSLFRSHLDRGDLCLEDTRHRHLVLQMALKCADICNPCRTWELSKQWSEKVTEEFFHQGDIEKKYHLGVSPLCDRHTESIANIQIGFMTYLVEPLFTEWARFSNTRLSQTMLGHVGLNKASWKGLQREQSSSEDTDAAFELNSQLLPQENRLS

For `CCCOc1ccccc1-c1nc2nn[nH]c2c(=O)[nH]1` [zaprinast], in data set [1], the “cAMP levels in mice” value is given as “failed to alter cAMP levels significantly”.

Turning to `CCOC(=O)C1=C[C@]2(CC)CCCN3CCc4c(n1c1ccccc41)[C@@H]32` [vinpocetine], the “cAMP levels in mice” value in [1] is reported as “failed to alter cAMP levels significantly”.

Consider `CN(C(=O)CCCOc1ccc2[nH]c(=O)ccc2c1)C1CCCCC1` [cilostamide], for which the “plasma cAMP concentration in dogs” value in data set [2] is reported as “no”.

As to `COc1ccc(C2CNC(=O)C2)cc1OC1CCCC1` (centres unmarked) [rolipram], the “plasma cAMP concentrations in mice” value in [1] is “increased plasma cAMP concentrations”. Further, the “plasma cAMP concentration in dogs” value in [2] is given as “elevated plasma cAMP concentration in dogs in a dose-dependent manner”.

For the compound `C[C@H](O)CCCCn1c(=O)c2c(ncn2C)n(C)c1=O` [S-(+)-LSF], the IC50 was 52.5 µM in [3] and 328 µM in [4].

Regarding `OCCN(CCO)c1nc(N2CCCCC2)c2nc(N(CCO)CCO)nc(N3CCCCC3)c2n1` [dipyridamole], the “cAMP levels in mice” value in data set [1] is recorded as “failed to alter cAMP levels significantly”.

`COc1ccc2[nH]cc(CCNC(C)=O)c2c1` [melatonin]: in the data set on cAMP plasma levels (administered orally, 1 h following administration, ref Zhdanova and Raz [1999]), the “cAMP plasma levels in humans” value is reported as “significantly augmented”.

In the case of `Cn1c(=O)c2[nH]cnc2n(C)c1=O` [theophylline], the “plasma levels of cAMP” value in data set [1] (mice, orally 100 mg kg^−1, 20 min post-dose) was 296.9 pmol/mL. The “plasma concentrations of cAMP” value in data set [5] is 228.22 pmol/mL.

Regarding `CC(O)CCCCn1c(=O)c2c(ncn2C)n(C)c1=O` (racemic) [(±)-LSF, (±)-1-(5-hydroxyhexyl)-3,7-dimethylpurine-2,6-dione], the “VLSF (volume of (±)-LSF compartment), final estimate (CV%)” value in [6] ((±)-LSF parent drug, i.v. 40 and 80 mg kg^−1, endotoxemic rats, one-compartment Michaelis-Menten model) was 1.22 (3.44) L kg^−1. The Km in data set [6] (male, Wistar, rat, plasma, iv, (±)-LSF parent drug, i.v., endotoxemic rats, read-out: Km (drug concentration at which elimination rate is half-maximal), final estimate (CV%)) is 6.02 µg/mL. Moreover, the “TNF-α concentrations in plasma of endotoxemic rats” value in the data set on TNF-α plasma levels is given as “significant decrease”. In addition, in data set [7], the “cAMP levels in rat plasma after administration” value is reported as “increase in cAMP levels in rat plasma in a dose-dependent manner”. In addition, the “lower in vivo IC50 value compared to PTX” value in data set [7] (PK/PD model, rats) is reported as “approximately 20%”. Also, the IC50 in data set [7] (setting [10]) is 3.43 µg/mL; in [7] (setting [11]), 12.2 µM. Also, in [7] (dose of 40 mg kg^−1 i.v. with LPS 1 mg kg^−1, p > 0.05), the “peak cAMP level in comparison with the group receiving LPS only” value was “did not increase”.

Regarding `CC(=O)Nc1ccc(-c2c[nH]c(=O)cn2)cc1` [SKF-94,120], the “cAMP levels in mice” value in data set [1] was “failed to alter cAMP levels significantly”.

What is called half-life is the time needed for the level to fall by half in the phase considered. On to `CC(=O)CCCCn1c(=O)c2c(ncn2C)n(C)c1=O` [PTX, 1-(5-oxohexyl)-3,7-dimethylpurine-2,6-dione], for which the “cAMP plasma levels elevation compared to the placebo group” value in the data set on cAMP plasma levels (healthy subjects, i.v. infusion 300 mg in 1 h, measured 1 h from beginning of infusion, ref Kruuse et al. [2000]) was “approximately 50%”. Further, the half-life in [6] (male, Wistar, rat, plasma, iv, rats, i.v., read-out: elimination half-life (t0.5)) was 16.4 min. In addition, in data set [6] (male, Wistar, rat, plasma, iv, read-out: ke (rate constant for disappearance of parent compound), final estimate (CV%) (converted)), the k el is 0.000933 s⁻¹. Also, the “TNF-α concentrations in plasma of endotoxemic rats” value in the data set with TNF-α plasma levels is reported as “significant decrease”. Further, the “cAMP levels in rat plasma after administration” value in data set [7] is on record as “increase in cAMP levels in rat plasma in a dose-dependent manner”. Moreover, the IC50 in data set [7] (setting [10]) is 4.48 µg/mL; in data set [7] (setting [11]) it was 16.1 µM; in [4], over 500 µM. In data set [4] (in vitro assay), the “activity as inhibitor of hrPDE7A” value is listed as “ineffective”.

Regarding `CCCSc1nc(N[C@@H]2C[C@H]2c2ccc(F)c(F)c2)c2nnn([C@@H]3C[C@H](OCCO)[C@@H](O)[C@H]3O)c2n1` [ticagrelor], the “levels of cAMP in treated patients” value in the data set with cAMP plasma levels (patients, ref Li et al. [2017]) was “Elevated levels of cAMP”.

In the case of `CC(C)Cn1c(=O)n(C)c(=O)c2[nH]cnc21` [IBMX, 1-methyl-3-(2-methylpropyl)-7H–purine-2,6-dione], the IC50 in [3] came out at 46.6 µM; in data set [4], 77.7 µM.

For the compound `COc1ccc(C2CNC(=O)NC2)cc1O[C@H]1C[C@@H]2CC[C@H]1C2` [CP-80,633], in [1], the “plasma cAMP concentrations in mice” value is recorded as “increased plasma cAMP concentrations”.

With `C[C@@H](O)CCCCn1c(=O)c2c(ncn2C)n(C)c1=O` [R-(-)-LSF], the IC50 turned out to be 49.1 µM in [3] and 266 µM in data set [4]. For the same compound, the “inhibition of IL-12-induced murine Th1 differentiation” value in [8] is “inhibited”. For the same compound, the Km in data set [9] was 15.08 mg/L. In addition, the Vmax in data set [9] is 2.33 mg/min/kg.
